Data on three compounds can be found in ChEMBL document CHEMBL1137456, “The synthesis and biological activity of pentafluorosulfanyl analogs of fluoxetine, fenfluramine, and norfenfluramine” (Bioorg Med Chem, 2007).

Holding throughout (assay type): cell-based
Common to all, as to details: COS-7

In experiment [1] the target is T1, 5-hydroxytryptamine receptor 1A (Homo sapiens) (UniProt P08908).
T1 sequence (whole entry): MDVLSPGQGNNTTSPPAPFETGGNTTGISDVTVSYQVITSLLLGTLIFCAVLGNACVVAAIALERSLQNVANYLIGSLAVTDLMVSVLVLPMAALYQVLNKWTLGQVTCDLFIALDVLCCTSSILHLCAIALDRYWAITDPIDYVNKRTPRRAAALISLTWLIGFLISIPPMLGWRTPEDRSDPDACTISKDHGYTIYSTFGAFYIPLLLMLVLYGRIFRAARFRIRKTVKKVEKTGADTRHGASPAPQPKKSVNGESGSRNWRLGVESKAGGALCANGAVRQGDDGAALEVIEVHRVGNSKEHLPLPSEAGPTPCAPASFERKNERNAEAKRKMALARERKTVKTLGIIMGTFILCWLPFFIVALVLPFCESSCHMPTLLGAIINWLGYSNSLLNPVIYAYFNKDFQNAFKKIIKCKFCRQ
Put plainly: Inhibition of human 5HT1A expressed in COS7 cells at 10 uM.

Experiment [2] concerns the target 5-hydroxytryptamine receptor 1B (Homo sapiens) (UniProt P28222). The experiment can be described thus: Inhibition of human 5HT1B expressed in COS7 cells at 10 uM.
The target in experiment [3] is 5-hydroxytryptamine receptor 1D (Homo sapiens) (UniProt P28221). Put plainly: Inhibition of human 5HT1D expressed in COS7 cells at 10 uM.
5-hydroxytryptamine receptor 1D (Homo sapiens), sequence (P28221 whole entry): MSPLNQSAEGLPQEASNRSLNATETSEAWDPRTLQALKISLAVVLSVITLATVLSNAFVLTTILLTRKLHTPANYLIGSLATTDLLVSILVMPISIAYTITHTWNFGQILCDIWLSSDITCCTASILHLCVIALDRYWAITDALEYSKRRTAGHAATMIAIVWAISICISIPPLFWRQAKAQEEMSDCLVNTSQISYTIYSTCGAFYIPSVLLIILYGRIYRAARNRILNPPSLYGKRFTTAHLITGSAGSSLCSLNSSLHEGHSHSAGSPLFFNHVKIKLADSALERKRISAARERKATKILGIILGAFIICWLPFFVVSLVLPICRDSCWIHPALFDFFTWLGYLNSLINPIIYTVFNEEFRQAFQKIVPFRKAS
The target in experiment [4] is 5-hydroxytryptamine receptor 1E (Homo sapiens) (UniProt P28566). The experiment can be described thus: Inhibition of human 5HT1E expressed in COS7 cells at 10 uM.
5-hydroxytryptamine receptor 1E (Homo sapiens), sequence (P28566 whole entry): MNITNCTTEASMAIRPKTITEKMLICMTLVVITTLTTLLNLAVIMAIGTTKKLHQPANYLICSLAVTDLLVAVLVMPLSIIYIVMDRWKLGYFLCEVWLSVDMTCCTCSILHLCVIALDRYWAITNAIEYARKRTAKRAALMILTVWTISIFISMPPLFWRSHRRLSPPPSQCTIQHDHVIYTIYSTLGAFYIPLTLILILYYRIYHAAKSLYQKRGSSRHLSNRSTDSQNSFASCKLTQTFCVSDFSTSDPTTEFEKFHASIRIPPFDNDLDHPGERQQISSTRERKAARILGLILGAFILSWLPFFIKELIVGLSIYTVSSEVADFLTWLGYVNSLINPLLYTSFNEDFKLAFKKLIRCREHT
Experiment [5] deals with 5-hydroxytryptamine receptor 2A (Rattus norvegicus) (UniProt P14842). Put plainly: Inhibition of rat 5HT2A expressed in COS7 cells at 10 uM.
5-hydroxytryptamine receptor 2A (Rattus norvegicus), sequence (P14842 whole entry): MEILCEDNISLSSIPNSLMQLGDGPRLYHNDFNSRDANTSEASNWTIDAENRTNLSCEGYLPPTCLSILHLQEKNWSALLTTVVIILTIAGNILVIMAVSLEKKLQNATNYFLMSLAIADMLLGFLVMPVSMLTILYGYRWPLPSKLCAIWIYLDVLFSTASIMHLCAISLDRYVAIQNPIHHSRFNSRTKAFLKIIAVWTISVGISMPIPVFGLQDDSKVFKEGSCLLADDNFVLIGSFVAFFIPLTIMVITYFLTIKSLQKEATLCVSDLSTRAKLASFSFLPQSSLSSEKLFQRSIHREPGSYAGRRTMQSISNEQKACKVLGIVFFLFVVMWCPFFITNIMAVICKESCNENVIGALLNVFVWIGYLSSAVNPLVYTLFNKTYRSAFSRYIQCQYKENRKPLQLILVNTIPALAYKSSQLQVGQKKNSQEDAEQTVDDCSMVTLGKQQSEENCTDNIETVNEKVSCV
Experiment [6] concerns the target 5-hydroxytryptamine receptor 2B (Homo sapiens) (UniProt P41595). Put plainly: Inhibition of human 5HT2B expressed in COS7 cells at 10 uM.
Experiment [7] has as its target T2, 5-hydroxytryptamine receptor 2C (Rattus norvegicus) (UniProt P08909).
T2 sequence (whole entry): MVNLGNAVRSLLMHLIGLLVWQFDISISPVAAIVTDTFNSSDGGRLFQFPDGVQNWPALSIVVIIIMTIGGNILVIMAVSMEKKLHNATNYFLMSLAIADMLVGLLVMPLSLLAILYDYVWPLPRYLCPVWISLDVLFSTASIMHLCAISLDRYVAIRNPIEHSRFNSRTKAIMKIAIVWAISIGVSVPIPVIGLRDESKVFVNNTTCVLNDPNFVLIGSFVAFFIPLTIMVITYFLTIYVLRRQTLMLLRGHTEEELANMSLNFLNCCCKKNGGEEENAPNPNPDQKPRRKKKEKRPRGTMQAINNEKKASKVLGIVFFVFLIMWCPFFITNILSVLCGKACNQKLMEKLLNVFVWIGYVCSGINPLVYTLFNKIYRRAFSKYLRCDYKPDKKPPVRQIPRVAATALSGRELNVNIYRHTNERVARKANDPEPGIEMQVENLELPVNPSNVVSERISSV
Put plainly: Inhibition of rat 5HT2C expressed in COS7 cells at 10 uM.

The target in experiment [8] is T3, 5-hydroxytryptamine receptor 3A (Homo sapiens) (UniProt P46098).
T3 sequence (whole entry): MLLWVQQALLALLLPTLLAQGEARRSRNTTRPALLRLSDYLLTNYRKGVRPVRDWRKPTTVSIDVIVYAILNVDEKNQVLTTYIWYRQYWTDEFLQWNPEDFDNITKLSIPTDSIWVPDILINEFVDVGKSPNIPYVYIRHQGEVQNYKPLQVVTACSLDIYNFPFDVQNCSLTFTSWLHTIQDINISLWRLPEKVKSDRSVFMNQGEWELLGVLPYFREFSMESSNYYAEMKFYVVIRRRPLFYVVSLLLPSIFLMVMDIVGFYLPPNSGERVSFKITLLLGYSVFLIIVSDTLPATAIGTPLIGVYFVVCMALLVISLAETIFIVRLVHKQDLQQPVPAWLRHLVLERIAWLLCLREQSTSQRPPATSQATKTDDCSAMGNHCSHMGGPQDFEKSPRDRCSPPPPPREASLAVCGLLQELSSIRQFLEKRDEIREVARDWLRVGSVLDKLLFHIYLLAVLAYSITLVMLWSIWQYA
Put plainly: Inhibition of human 5HT3 expressed in COS7 cells at 10 uM.

For experiment [9], the target named is 5-hydroxytryptamine receptor 5A (Homo sapiens) (UniProt P47898). Put plainly: Inhibition of human 5HT5A expressed in COS7 cells at 10 uM.
5-hydroxytryptamine receptor 5A (Homo sapiens), sequence (P47898 whole entry): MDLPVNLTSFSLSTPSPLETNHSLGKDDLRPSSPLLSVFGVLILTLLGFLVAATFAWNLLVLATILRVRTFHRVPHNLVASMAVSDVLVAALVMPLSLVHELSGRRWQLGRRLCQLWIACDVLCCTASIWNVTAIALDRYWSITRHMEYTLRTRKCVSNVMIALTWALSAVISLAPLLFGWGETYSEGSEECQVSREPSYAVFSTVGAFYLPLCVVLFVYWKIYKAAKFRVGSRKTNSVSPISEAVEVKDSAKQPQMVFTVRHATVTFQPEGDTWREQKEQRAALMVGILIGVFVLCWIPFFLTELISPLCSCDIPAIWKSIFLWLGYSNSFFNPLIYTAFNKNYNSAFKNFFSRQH
The target in experiment [10] is 5-hydroxytryptamine receptor 6 (Homo sapiens) (UniProt P50406). Put plainly: Inhibition of human 5HT6 expressed in COS7 cells at 10 uM.
5-hydroxytryptamine receptor 6 (Homo sapiens), sequence (P50406 whole entry): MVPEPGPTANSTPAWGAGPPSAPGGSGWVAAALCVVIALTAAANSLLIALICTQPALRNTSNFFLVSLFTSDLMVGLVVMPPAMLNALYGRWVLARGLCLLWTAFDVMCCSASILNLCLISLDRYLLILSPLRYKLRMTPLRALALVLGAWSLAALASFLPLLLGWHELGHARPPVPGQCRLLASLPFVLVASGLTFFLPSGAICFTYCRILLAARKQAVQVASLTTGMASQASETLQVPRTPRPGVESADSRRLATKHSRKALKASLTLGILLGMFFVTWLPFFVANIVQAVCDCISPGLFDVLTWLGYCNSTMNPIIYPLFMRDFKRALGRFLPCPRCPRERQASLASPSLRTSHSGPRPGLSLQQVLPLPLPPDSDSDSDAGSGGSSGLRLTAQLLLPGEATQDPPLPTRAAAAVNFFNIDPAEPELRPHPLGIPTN
Experiment [11] deals with 5-hydroxytryptamine receptor 7 (Homo sapiens) (UniProt P34969). Put plainly: Inhibition of human 5HT7 expressed in COS7 cells at 10 uM.
5-hydroxytryptamine receptor 7 (Homo sapiens), sequence (P34969 whole entry): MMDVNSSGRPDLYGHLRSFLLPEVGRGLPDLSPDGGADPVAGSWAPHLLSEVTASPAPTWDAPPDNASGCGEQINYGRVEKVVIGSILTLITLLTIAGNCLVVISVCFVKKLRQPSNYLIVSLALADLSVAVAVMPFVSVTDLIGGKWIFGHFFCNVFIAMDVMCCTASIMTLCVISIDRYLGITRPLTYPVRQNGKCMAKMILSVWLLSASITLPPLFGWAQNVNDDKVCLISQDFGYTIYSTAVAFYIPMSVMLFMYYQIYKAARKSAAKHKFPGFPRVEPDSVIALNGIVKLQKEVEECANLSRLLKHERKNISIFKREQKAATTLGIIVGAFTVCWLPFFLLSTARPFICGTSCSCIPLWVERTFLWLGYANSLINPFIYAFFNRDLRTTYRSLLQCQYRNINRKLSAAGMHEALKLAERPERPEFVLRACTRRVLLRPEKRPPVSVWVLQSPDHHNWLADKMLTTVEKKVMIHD

The structures appear in SMILES notation.

5-hydroxytryptamine receptor 2B (Homo sapiens), sequence (P41595 whole entry): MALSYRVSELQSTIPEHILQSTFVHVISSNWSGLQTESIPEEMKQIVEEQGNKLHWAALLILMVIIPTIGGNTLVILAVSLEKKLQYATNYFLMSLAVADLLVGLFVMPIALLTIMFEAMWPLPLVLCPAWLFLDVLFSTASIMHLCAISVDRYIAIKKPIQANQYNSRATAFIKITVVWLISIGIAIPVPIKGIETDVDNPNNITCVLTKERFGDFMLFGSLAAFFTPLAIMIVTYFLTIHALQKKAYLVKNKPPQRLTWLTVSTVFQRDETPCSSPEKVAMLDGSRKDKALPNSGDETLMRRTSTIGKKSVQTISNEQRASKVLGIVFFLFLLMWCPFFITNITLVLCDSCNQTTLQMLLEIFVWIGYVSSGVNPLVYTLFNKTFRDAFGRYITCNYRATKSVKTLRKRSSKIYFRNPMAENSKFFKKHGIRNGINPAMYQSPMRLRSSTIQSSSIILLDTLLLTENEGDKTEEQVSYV
5-hydroxytryptamine receptor 1B (Homo sapiens), sequence (P28222 whole entry): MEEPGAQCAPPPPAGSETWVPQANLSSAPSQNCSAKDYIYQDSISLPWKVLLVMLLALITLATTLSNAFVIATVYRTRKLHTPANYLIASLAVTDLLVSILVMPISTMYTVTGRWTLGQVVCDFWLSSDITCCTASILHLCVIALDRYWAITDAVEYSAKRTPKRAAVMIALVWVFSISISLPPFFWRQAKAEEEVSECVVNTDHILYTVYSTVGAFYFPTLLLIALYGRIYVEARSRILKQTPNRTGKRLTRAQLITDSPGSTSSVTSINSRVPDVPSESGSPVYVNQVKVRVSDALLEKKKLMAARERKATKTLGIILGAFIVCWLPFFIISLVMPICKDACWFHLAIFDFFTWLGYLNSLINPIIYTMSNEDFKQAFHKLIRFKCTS

By inhibition is commonly meant the change of the read-out against control, counted positive when it falls. For the compound `CCNC(C)Cc1cccc(S(F)(F)(F)(F)F)c1` (stereo not drawn), the inhibition in experiment [1] was determined as 85.5%; in experiment [2], 63.5%; in experiment [3], 15.2%; in [4], 7.3%; in experiment [5], 53.2%; in experiment [6], 85.3%. Moreover, the inhibition was 72.8% in [7]; 14.6% in experiment [8]; 62.7% in experiment [9]; 50% in experiment [10]; 50% in experiment [11].

Consider `CNCCC(Oc1ccc(S(F)(F)(F)(F)F)cc1)c1ccccc1` (stereo not drawn), for which the inhibition is -3% in experiment [1]; 3.4% in experiment [2]; 12.7% in [3]; 77.8% in experiment [4]; 97.3% in [5]; 71.9% in experiment [6]. The inhibition in experiment [7] turned out to be 75.8%; in experiment [8], 6.8%; in experiment [9], 25%; in experiment [10], 1.5%; in [11], 12%.

As to `CC(N)Cc1cccc(S(F)(F)(F)(F)F)c1` (stereo not drawn), the inhibition was 50% in [1]; 62.9% in [2]; 73.7% in experiment [3]; 23.4% in experiment [4]; 85.9% in experiment [5]; 89.6% in [6]. Also, the inhibition in experiment [7] was 94.6%; in [8], -6.1%; in experiment [9], 31.3%; in [10], 50%; in experiment [11], 50%.
